Test system: termite Prorhinotermes simplex
Experiment: Force feeding test (FF): juvenilizing effect (induction of soldier caste differentiation) on termite pseudergates
Assay type: in vivo
Conditions: 500 ppm in treated food, 60 pseudergates, 16 days, soldier caste induction in percents of surviving individuals
Excerpt: A Way of Screening of the Biological Activity of the Compound Claimed in the claim 1 of the General Formula I Against Termite Prorhinotermes Simplex
Termites have only a sample of food treated with the compound claimed in the claim 1 of the general formula I in the force feeding test (FF), but a choice between a sample of food treated with the compound claimed in the claim 1 of the general formula I and a reference sample of food treated with acetone only. A treatment of the food samples with the compound I claimed in the claim 1 has been made in at least two concentrations, 500 ppm and 5 ppm. A number of 60 pseudergates was exposed to a treatment in each test, and each test is twice repeated. Each test has 16 days duration. The induction of the soldier caste differentiation has been evaluated as the juvenilizing effect. The result is given in percents of the number of surviving individuals. The juvenoid methoprene has been used as the reference compound for testing of the biological activity of the compound I claimed in the claim 1. The results of screening of several structures corresponding the general formula I claimed in the claim 1 in a concentration of 500 ppm are given in Table 1.

| SMILES | Juvenilizing effect [%] |
| --- | --- |
| COC(C)(C)CCC[C@H](C)C/C=C/C(C)=C/C(=O)OC(C)C (racemic) [Methoprene, methoprene, reference compound] | 1.3 |
| CCCCCCCC/C=C\CCCCCCCC(=O)O[C@H]1CCCC[C@H]1Cc1ccc(OCCNC(=O)OCC)cc1 (relative stereo) [Ethyl N-{2-{4-[(cis-2-(cis-9-octadecenoyl)oxycyclohexyl)methyl]phenoxy}ethyl} carbamate] | 93.7 |
| CCCC(=O)O[C@H]1CCCC[C@H]1Cc1ccc(OCCNC(=O)OCC)cc1 (relative stereo) [Ethyl N-{2-{4-[(cis-2-butanoyloxycyclohexyl)methyl]phenoxy}ethyl} carbamate] | 86.1 |
| CCCCCCCCCCCCCCCC(=O)O[C@H]1CCCC[C@H]1Cc1ccc(OCCNC(=O)OCC)cc1 (relative stereo) [Ethyl N-{2-{4-[(cis-2-hexadecanoyloxycyclohexyl)methyl]phenoxy}ethyl} carbamate] | 89.1 |
| CCCCCCCCCCCCCCCCCC(=O)O[C@H]1CCCC[C@H]1Cc1ccc(OCCNC(=O)OCC)cc1 (relative stereo) [Ethyl N-{2-{4-[(cis-2-octadecanoyloxycyclohexyl)methyl]phenoxy}ethyl} carbamate] | 40.0 |
| CCCCCCCC/C=C\CCCCCCCC(=O)O[C@@H]1CCCC[C@H]1Cc1ccc(OCCNC(=O)OCC)cc1 (relative stereo) [Ethyl N-{2-{4-[(trans-2-(cis-9-octadecenoyl)oxycyclohexyl)methyl]phenoxy}ethyl} carbamate] | 64.7 |
| CCCC(=O)O[C@@H]1CCCC[C@H]1Cc1ccc(OCCNC(=O)OCC)cc1 (relative stereo) [Ethyl N-{2-{4-[(trans-2-butanoyloxycyclohexyl)methyl]phenoxy}ethyl} carbamate] | 87.4 |
| CCCCCCCCCCCCCCCC(=O)O[C@@H]1CCCC[C@H]1Cc1ccc(OCCNC(=O)OCC)cc1 (relative stereo) [Ethyl N-{2-{4-[(trans-2-hexadecanoyloxycyclohexyl)methyl]phenoxy}ethyl} carbamate] | 90.1 |
| CCCCCCCCCCCCCCCCCC(=O)O[C@@H]1CCCC[C@H]1Cc1ccc(OCCNC(=O)OCC)cc1 (relative stereo) [Ethyl N-{2-{4-[(trans-2-octadecanoyloxycyclohexyl)methyl]phenoxy}ethyl} carbamate] | 70.0 |

— patent US6734316B2, “Esters of fatty acids and juvenoid alcohols, and a method of their preparation and use” (Institute of Organic Chemistry and Biochemistry ASCR, priority 2000, dated 2004)
